{
  "source": "paper PMC3059644",
  "about": "(Frontiers in Psychiatry, 2010)",
  "key": {"[1]": {"biological_target": "adenosine A2A receptors", "conditions": "read-out: Ki for adenosine A2A receptors; ref Hutchison et al., 1989; cited from earlier work"}, "[2]": {"biological_target": "adenosine A1 receptors", "parameters": "method as in Hutchison et al., 1989", "conditions": "ref Hutchison et al., 1989; cited from earlier work"}, "[3]": {"tested_on": "adenosine A2A receptors versus A1 receptors", "conditions": "cited from earlier work"}, "[4]": {"tested_on": "[3H]CGS21680 binding sites", "parameters": "method as in Cunha et al., 1996, 1997", "conditions": "ref Cunha et al., 1996, 1997, cited from earlier work"}, "[5]": {"biological_target": "T1, typical adenosine A2A receptors (Rattus norvegicus, UniProt P30543)", "T1 sequence (P30543 whole entry)": "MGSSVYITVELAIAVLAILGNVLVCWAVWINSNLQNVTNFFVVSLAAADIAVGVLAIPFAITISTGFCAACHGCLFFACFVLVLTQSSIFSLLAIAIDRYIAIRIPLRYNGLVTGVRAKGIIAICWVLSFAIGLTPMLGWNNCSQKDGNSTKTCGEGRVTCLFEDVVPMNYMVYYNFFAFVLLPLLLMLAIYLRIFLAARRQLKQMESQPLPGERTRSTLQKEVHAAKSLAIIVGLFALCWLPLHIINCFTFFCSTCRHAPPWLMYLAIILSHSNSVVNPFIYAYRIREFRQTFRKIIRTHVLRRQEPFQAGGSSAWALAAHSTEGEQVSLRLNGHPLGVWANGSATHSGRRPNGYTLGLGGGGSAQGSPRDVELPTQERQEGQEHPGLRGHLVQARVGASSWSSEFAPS", "experiment": "[3H]CGS21680 specific binding in rat hippocampus in the presence of DPCPX (typical sites)", "conditions": "DPCPX used to isolate typical sites"}, "[6]": {"biological_target": "atypical adenosine A2A receptors", "experiment": "Displacement of [3H]CGS21680 binding in rat striatum in the presence of CSC (atypical sites)"}, "[7]": {"tested_on": "atypical adenosine A2A receptors", "experiment": "Displacement of [3H]CGS21680 binding in rat hippocampus in the presence of CSC (atypical sites)", "protocol": "The collected tissues were homogenized in about 25 volumes of incubation buffer and centrifuged at 40,000 g for 10 min at 4°C. The pellet was resuspended in the same fresh buffer, homogenized, centrifuged once again and the final pellet stored at −80°C until use. […] Prior to the competition binding assay, the pellet was resuspended in appropriate buffer at the wanted protein concentration and membrane suspension incubated with 5 U/ml adenosine deaminase (ADA, Sigma-Aldrich) for 30 min at 37°C to remove endogenous adenosine. The protein concentration of membrane suspension was determined using the Bradford method (Pierce, Rockford, IL, USA) with bovine albumin as standard. Competition binding experiments with [^3H]CGS21680 were performed by incubating membranes (50–100 μg of protein/sample) with a single concentrations of [^3H]CGS21680 (30 nM) for 2 h at room temperature in a solution containing 50 mM Tris-HCl, pH 7.4, 10 mM MgCl2 and 5 U/ml ADA and various concentrations (ranging from 10^−5 to 10^−12 M) of test compounds. Non-specific binding was determined in the presence of an excess of cold 2-chloroadenosine (Sigma-Aldrich). The binding reactions were stopped by vacuum filtration through GF/B filters, followed by washing of the filters with ice-cold washing buffer (same composition as the binding buffer) and filter-bound radioactivity measured by scintillation spectrometry. Competition studies were performed with the various compounds alone or in the presence of an excess of either CSC or DPCPX (both from Sigma-Aldrich). The compounds were dissolved in 100% DMSO (Sigma-Aldrich) at a concentration of 10 mM and stored at −20°C. An intermediate 100 μM working solution was prepared in water and subsequent scalar working solutions in incubation buffer."}, "[8]": {"biological_target": "T2, total adenosine A2A receptors (Rattus norvegicus, UniProt P30543)", "T2 sequence (P30543 whole entry)": "as above", "experiment": "Displacement of [3H]CGS21680 binding in rat striatal membranes, compounds alone (total)"}, "[9]": {"biological_target": "T2, total adenosine A2A receptors", "experiment": "Displacement of [3H]CGS21680 binding in rat hippocampal membranes, compounds alone (total)"}, "[10]": {"tested_on": "adenosine A2B receptor", "conditions": "cited from earlier work"}, "[11]": {"tested_on": "A1 and A2A receptors", "conditions": "transfected cells; ref Minetti et al., 2005; cited from earlier work"}, "[12]": {"biological_target": "T1, typical adenosine A2A receptors", "experiment": "Displacement of [3H]CGS21680 binding in rat striatum in the presence of DPCPX (typical sites)"}},
  "note": "pIC50, pKi: −log10 of the molar value. Like-named read-outs stand apart in the source and are kept apart here.",
  "data": [
    {"smiles": "CCNC(=O)[C@H]1O[C@@H](n2cnc3c(N)nc(NCCc4ccc(CCC(=O)O)cc4)nc32)[C@H](O)[C@@H]1O", "note": "[CGS21680, 2-p-(2-carboxyethyl)phenethyl-amino-5’-N-ethylcarbox-amidoadenosine]", "values": [
      {"measurement": "pKi", "setting": "[1]", "value": "~7.66"},
      {"measurement": "pKi", "setting": "[2]", "value": "~5.51"}
    ]},
    {"smiles": "Cn1c(=O)c2c(nc(C=Cc3cccc(Cl)c3)n2C)n(C)c1=O", "note": "[CSC, 8-(3-chlorostyryl)-caffeine]", "values": [
      {"measurement": "A2A/A1 selectivity", "setting": "[3]; ref Jacobson et al., 1993", "value": 520, "unit": "fold"},
      {"measurement": "loss of potency in inhibiting [3H]CGS21680 binding in hippocampus and cortex versus striatal membranes", "setting": "[4]", "value": 10, "unit": "fold"}
    ]},
    {"smiles": "CCCn1c(=O)c2[nH]c(C3CCCC3)nc2n(CCC)c1=O", "note": "[DPCPX, 8-cyclopentyl-1,3-dipropylxanthine]", "values": [
      {"measurement": "effect on [3H]CGS21680 specific binding in hippocampus", "setting": "[5]", "value": "completely abolished"},
      {"measurement": "concentrations displacing most of the [3H]CGS21680 binding in hippocampus and cortex", "setting": "[4]; hippocampus and cortex, not striatum", "value": "low nanomolar concentrations"}
    ]},
    {"smiles": "CCCn1c(=O)c2c(nc(/C=C/c3ccc(OC)c(OC)c3)n2C)n(CCC)c1=O", "note": "[KF17837, (E)-8-(3,4-dimethoxystyryl)-1,3-dipropyl-7-methylxanthine]", "values": [
      {"measurement": "A2A/A1 selectivity", "setting": "[3]; ref Nonaka et al., 1994", "value": 62, "unit": "fold"},
      {"measurement": "loss of potency in inhibiting [3H]CGS21680 binding in hippocampus and cortex versus striatal membranes", "setting": "[4]", "value": 10, "unit": "fold"}
    ]},
    {"smiles": "CCn1c(=O)c2c(nc(/C=C/c3ccc(OC)c(OC)c3)n2C)n(CC)c1=O", "note": "[KW6002, (E)-1,3-diethyl-8-(3,4-dimethoxystyryl)-7-methyl-3,7-dihydro-1H-purine-2,6,dione, reference compound]", "values": [
      {"measurement": "Ki", "setting": "[6]", "value": 74.2, "unit": "nM"},
      {"measurement": "decrease in affinity for atypical binding sites", "setting": "[6]", "value": "decreased from two to five fold"},
      {"measurement": "binding in hippocampus in the presence of CSC", "setting": "[7]", "value": "no binding"}
    ]},
    {"smiles": "Nc1nc2c(cnn2CCc2ccccc2)c2nc(-c3ccco3)nn12", "note": "[SCH58261, reference compound]", "values": [
      {"measurement": "pIC50", "setting": "[8]", "value": 7.78},
      {"measurement": "pKi", "setting": "[8]", "value": 8.32},
      {"measurement": "difference in affinity values between striatum and hippocampus", "setting": "[9]", "value": "about 200 fold"}
    ]},
    {"smiles": "CCCCc1nc(N)c2nc(-n3nccn3)n(C)c2n1", "note": "[ST1535, 2 butyl-9-methyl-8-(2H-1,2,3-triazol 2-yl)-9H-purin-6-xylamine]", "values": [
      {"measurement": "concentrations for A2B receptor higher than those for A2A receptors", "setting": "[10]; ref Stasi et al., 2006", "value": "about 3 fold"},
      {"measurement": "pIC50", "setting": "[8]; Figure 1, rat striatum, 30 nmol/L [3H]CGS21680, (95% CI), read-out: IC50", "value": 7.10},
      {"measurement": "Ki", "setting": "[8]; rat striatal membranes, 30 nM [3H]CGS21680, mean (95% CI) of 3-4 experiments, read-out: Ki values (nM) in striatum, Total", "value": 22.8, "unit": "nM"},
      {"measurement": "Hill coefficient, total striatal receptors", "setting": "[8]; striatum, total", "value": 0.7},
      {"measurement": "Hill coefficients in the hippocampus", "setting": "[9]; hippocampus", "value": "0.6–0.8"},
      {"measurement": "difference in affinity values between striatum and hippocampus", "setting": "[9]; total A2A binding, hippocampus versus striatum", "value": "about 5 fold"},
      {"measurement": "ratio between A1 and A2A receptors", "setting": "[11]", "value": "about 10 fold"},
      {"measurement": "pIC50", "setting": "[6]; Figure 3, rat striatum, 200 nmol/L CSC, (95% CI)", "value": 6.59},
      {"measurement": "Ki", "setting": "[6]; rat striatal membranes, in the presence of CSC, mean (95% CI)", "value": 73, "unit": "nM"},
      {"measurement": "decrease in affinity for atypical binding sites", "setting": "[6]; striatum, atypical versus total and typical", "value": "decreased from two to five fold"},
      {"measurement": "pIC50", "setting": "[7]; Figure 5, rat hippocampus, 200 nmol/L CSC, (95% CI)", "value": 6.35},
      {"measurement": "binding in hippocampus in the presence of CSC", "setting": "[7]; hippocampus, in the presence of CSC", "value": "displaced some affinity"},
      {"measurement": "Ki", "setting": "[7]; read-out: Ki values (nM) in hippocampus, Atypical, rat hippocampal membranes, in the presence of CSC, mean (95% CI)", "value": 146, "unit": "nM"},
      {"measurement": "Hill Slope", "setting": "[12]; Figure 2, rat striatum, 100 nmol/L DPCPX", "value": -1.007},
      {"measurement": "pIC50", "setting": "[12]; Figure 2, rat striatum, 100 nmol/L DPCPX, (95% CI)", "value": 6.93},
      {"measurement": "Ki", "setting": "[12]; rat striatal membranes, in the presence of DPCPX, mean (95% CI)", "value": 33.7, "unit": "nM"},
      {"measurement": "Hill coefficient, typical striatal receptors", "setting": "[12]; striatum, typical", "value": "around the unit"}
    ]},
    {"smiles": "Nc1nc(NCCc2ccc(O)cc2)nc2nc(-c3ccco3)nn12", "note": "[ZM241385, reference compound]", "values": [
      {"measurement": "concentrations for A2B receptor higher than those for A2A receptors", "setting": "[10]; ref Linden et al., 1999", "value": 22, "unit": "fold"}
    ]}
  ]
}
